Source: patent US10668118B2, “Microbial consortium and uses thereof” (The Regents of the University of California, priority 2016, dated 2020)
“Also recorded” adds a separate entry of the source.

Tested on: CD4^+CD25^+FOXP3^+ cells
Assay: Ex vivo dendritic cell challenge and T cell co-culture with 12,13-DiHOME
Format: cell-based, human
Experimental: Ex vivo dendritic cell challenge and T cell co-culture. Fecal samples from five of ten NGM1 and seven of eight NGM3 neonates that had undergone metabolic profiling were used (biological replicates). Excluded samples from these groups had insufficient volume for analyses. Fecal samples were homogenized 1 g ml^−1 (w:v) in pre-warmed phosphate-buffered saline (PBS) containing 20% FBS (FBS). Samples were vortexed, incubated (37° C., 10 min) and centrifuged (14,000 rpm, 30 min). Supernatant was filter-sterilized through a 0.2-μm filter before being used in the dendritic cell (DC) T cell assay described below. PBS was used as the negative control. Treatment conditions used for the DiHOME experiment included: 75 μM, 130 μM and 200 μM 12,13 DiHOME (Cayman Chemical, Ann Arbor, Mich.) solubilized in 0.4%, 0.15% and 0.05% DMSO, respectively. DiHOME solutions were added to R10 media (Roswell Park Memorial Institute media 1640 with 10% heat-inactivated FBS (antigen activator) and 2 mM 1-glutamine and 100 U ml^−1 penicillin-streptomycin added; Life Technologies) and exposed to DCs within 1 h of preparation. Controls included PBS and DMSO (delivered in R10 media) at corresponding percentages used to dissolve the different concentrations of DiHOME.
Peripheral blood mononuclear cells (PBMCs) were purified from plasma obtained from healthy, de-identified human donors (Blood Centers of the Pacific, San Francisco, Calif.) through the cell-sourcing program that ensures donor confidentiality. Donors signed an agreement acknowledging that their blood may be used for research. PBMCs were isolated using Ficoll-Hypaque gradient centrifugation, washed twice with R10 media and incubated for 18 h. Dendritic cells (DCs) were isolated from PBMCs using the EasySep Human Pan-DC Pre-Enrichment Kit (STEMCELL Technologies, Vancouver, BC). DCs (0.5×10^6 cells ml^−1) from two donors (biological replication) were treated in triplicate (treatment replicate) with either cell-free fecal water ([…]) or varying concentrations of DiHOME, and cultured in R10 media supplemented with 10 ng ml^−1 GM-CSF and 20 ng ml^−1 IL-4 at 37° C.^27 for 2 d, for the fecal-water assay, or 5 d, for the DiHOME experiment. For the DiHOME experiment, freshly prepared media containing DiHOME or control exposures was replaced every 48 h. For the fecal-water experiment, the assay was repeated twice on one donor (technical replicates) and once on donor B owing to insufficient numbers of cells recovered from the latter donor. Treatment replicates were also considered biological replicates because the human donor cells are not clonal.
Twenty-four hours before co-culture with CD4^+ T cells, DC maturation was stimulated by using DC growth mediators (10 ng ml^−1 […] [(TNF-α), 10 ng ml^−1 IL-1b, 10 ng ml^−1 IL-6 and […] (PGE2)]. In preparation for co-culture, DCs were washed in fresh R10 media, counted via flow cytometry and plated in TexMACs Medium (Miltenyi Biotec, San Diego, Calif.) at 0.5×10^6 live CD45^+ cells per well.
Autologous T lymphocytes were purified from the PBMCs using a naïve CD4^+ T cell isolation kit (Miltenyi Biotec). After purification, naïve autologous CD4^+ T cells were suspended in the TexMACS Medium (Miltenyi Biotec) and added to the treated DCs at a ratio of 10:1 in the presence of soluble anti-CD28 and anti-CD49d ([…]). […] Cytokine secretion was evaluated by cytometric bead array, following the manufacturer's protocol (BD Biosciences). […]

SMILES: CCCCCC(O)C(O)C/C=C\CCCCCCCC(=O)O (centres unmarked) [12,13-DiHOME]
- proportion of CD4^+CD25^+FOXP3^+ cells (75 μM, compared to vehicle control (LME P=0.04)): significantly reduced
- proportion of CD4^+CD25^+FOXP3^+ cells (130 μM, compared to vehicle control (LME P<0.001)): significantly reduced
- effect size for the suppression of CD4^+CD25^+FOXP3^+ (130 μM, preliminary assays): approximately seven
- proportion of CD4^+CD25^+FOXP3^+ cells (200 μM, compared to vehicle control (LME P=0.001)): significantly reduced
- proportion of CD4^+CD25^+FOXP3^+ cells (all concentrations examined, compared with vehicle treatment): recapitulated the effect of NGM3 fecal water; also recorded: reduced
